Measured values as given in patent US10875876B2, “Cyclized sulfamoylarylamide derivatives and the use thereof as medicaments for the treatment of hepatitis B” (priority 2015, dated 2020).
Where two headings read alike, the source gives them in different places.

Experiments:
[1] = system: HBV; test: anti HBV activity, HepG2.117 cell line, intracellular HBV DNA by realtime PCR; type: cell-based; conditions: HepG2.117 cell line (Tet-off), 3 days of treatment, intracellular HBV DNA quantified by realtime PCR, read-out: HBV-AVE-HepG2.117 EC50
Method in brief: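 Readout was intracellular HBV DNA by real-time PCR (HBV-specific primers and probe) after 3 days of compound exposure. Serial dilutions were tested in duplicate on HepG2.117 cells, a stable inducible HBV producer in which replication is switched on when doxycycline is absent.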

[2] = Cytotoxicity in HepG2 cells, Resazurin assay; conditions: human, HepG2 cells, TOX-HepG2-4 d CC50 (μM), HepG2 cells incubated for 4 days, viability by Resazurin assay
[3] = Hepatitis B virus, HepG2.117, 72 h

SMILES	EC50 [1, 3]	melting point	CC50 at 4 days [2]	EC50 [1]
Cn1cc2c(c1C(=O)Nc1ccc(F)c(F)c1)C=CC(C(F)(F)F)NS2(=O)=O (stereo not drawn) [Compound 8, N-(3,4-difluorophenyl)-7-methyl-1,1-dioxo-3-(trifluoromethyl)-2,3-dihydropyrrolo[3,4-f]thiazepine-6-carboxamide]	47 nM	245.6 °C	> 25 µM	–
Cn1cc2c(c1C(=O)Nc1ccc(F)c(C#N)c1)OC[C@H](C(C)(C)O)NS2(=O)=O [Compound 106, (3R)—N-(3-cyano-4-fluoro-phenyl)-3-(1-hydroxy-1-methyl-ethyl)-7-methyl-1,1-dioxo-3,4-dihydro-2H-pyrrolo[3,4-b][1,4,5]oxathiazepine-6-carboxamide]	8 nM	260.1 °C	> 25 µM	–
C[C@H](O)[C@H]1C=Cc2c(cn(C)c2C(=O)Nc2cc(F)c(F)c(F)c2)S(=O)(=O)N1 [Compound 98, (3R)-3-[(1S)-1-hydroxyethyl]-7-methyl-1,1-dioxo-N-(3,4,5-trifluorophenyl)-2,3-dihydropyrrolo[3,4-f]thiazepine-6-carboxamide]	8 nM	244 °C	> 25 µM	–
Cn1cc2c(c1C(=O)Nc1ccc(F)c(F)c1)CC[C@H](C(C)(C)O)NS2(=O)=O [Compound 102, (3R)—N-(3,4-difluorophenyl)-3-(1-hydroxy-1-methyl-ethyl)-7-methyl-1,1-dioxo-2,3,4,5-tetrahydropyrrolo[3,4-f]thiazepine-6-carboxamide]	9 nM	218.2 °C	> 25 µM	–
Cn1cc2c(c1C(=O)Nc1ccc(F)c(C#N)c1)OC[C@@H](C(C)(C)O)NS2(=O)=O [Compound 107, (3S)—N-(3-cyano-4-fluoro-phenyl)-3-(1-hydroxy-1-methyl-ethyl)-7-methyl-1,1-dioxo-3,4-dihydro-2H-pyrrolo[3,4-b][1,4,5]oxathiazepine-6-carboxamide]	80 nM	259.8 °C	> 25 µM	–
Cn1cc2c(c1C(=O)Nc1ccc(F)c(F)c1)CC(O)CNS2(=O)=O (stereo not drawn) [Compound 68, N-(3,4-difluorophenyl)-4-hydroxy-7-methyl-1,1-dioxo-2,3,4,5-tetrahydropyrrolo[3,4-f]thiazepine-6-carboxamide]	230 nM	229 °C	> 25 µM	–
Cn1cc2c(c1C(=O)Nc1ccc(F)c(F)c1)CC[C@@H](C(C)(C)O)NS2(=O)=O [Compound 113, (3S)—N-(3,4-difluorophenyl)-3-(1-hydroxy-1-methyl-ethyl)-7-methyl-1,1-dioxo-2,3,4,5-tetrahydropyrrolo[3,4-f]thiazepine-6-carboxamide]	120 nM	217.7 °C	> 25 µM	–
Cn1cc2c(c1C(=O)Nc1ccc(F)c(F)c1)C=CCNS2(=O)=O [Compound 9, N-(3,4-difluorophenyl)-7-methyl-1,1-dioxo-2,3-dihydropyrrolo[3,4-f]-thiazepine-6-carboxamide]	36 nM	221.9 °C	> 25 µM	–
Cn1cc2c(c1C(=O)Nc1ccc(F)c(Cl)c1)OCC(C)(Cc1cccnc1)NS2(=O)=O (stereo not drawn) [Compound 211, N-(3-chloro-4-fluoro-phenyl)-3,7-dimethyl-1,1-dioxo-3-(3-pyridylmethyl)-2,4-dihydropyrrolo[3,4-b][1,4,5]oxathiazepine-6-carboxamide]	7 nM	211.5 °C	> 25 µM	–
Cn1cc2c(c1C(=O)Nc1ccc(F)c(F)c1)OCC(C)(Cc1cccnc1)NS2(=O)=O (racemic) [Compound 199, N-(3,4-difluorophenyl)-3,7-dimethyl-1,1-dioxo-3-(3-pyridylmethyl)-2,4-dihydropyrrolo[3,4-b][1,4,5]oxathiazepine-6-carboxamide]	15 nM	268.3 °C	> 25 µM	–
Cn1cncc1CC1(C)COc2c(cn(C)c2C(=O)Nc2ccc(F)c(F)c2)S(=O)(=O)N1 (stereo not drawn) [Compound 174, N-(3,4-difluorophenyl)-3,7-dimethyl-3-[(3-methylimidazol-4-yl)methyl]-1,1-dioxo-2,4-dihydropyrrolo[3,4-b][1,4,5]oxathiazepine-6-carboxamide]	7 nM	265.5 °C	> 25 µM	–
Cn1cc2c(c1C(=O)Nc1ccnc(C(F)F)c1)OCC(C)(C)NS2(=O)=O [Compound 158, N-[2-(difluoromethyl)-4-pyridyl]-3,3,7-trimethyl-1,1-dioxo-2,4-dihydropyrrolo[3,4-b][1,4,5]oxathiazepine-6-carboxamide]	31 nM	229.9 °C	> 25 µM	–
C[C@H]1CCc2c(cn(C)c2C(=O)Nc2ccc(F)c(C(F)F)c2F)S(=O)(=O)N1 [Compound 164, (3S)—N-[3-(difluoromethyl)-2,4-difluoro-phenyl]-3,7-dimethyl-1,1-dioxo-2,3,4,5-tetrahydropyrrolo[3,4-f]thiazepine-6-carboxamide]	12 nM	227.7 °C	> 25 µM	–
CCC(O)[C@@H]1COc2c(cn(C)c2C(=O)Nc2ccc(F)c(C#N)c2)S(=O)(=O)N1 (stereo in doubt) [Compound 163, N-(3-cyano-4-fluoro-phenyl)-3-(1-hydroxypropyl)-7-methyl-1,1-dioxo-3,4-dihydro-2H-pyrrolo[3,4-b][1,4,5]oxathiazepine-6-carboxamide]	> 125 nM	247 °C	> 25 µM	–
C[C@H](O)[C@H]1CCc2c(cn(C)c2C(=O)Nc2ccc(F)c(C(F)F)c2F)S(=O)(=O)N1 [Compound 188, (3R)—N-[3-(difluoromethyl)-2,4-difluoro-phenyl]-3-[(1S)-1-hydroxyethyl]-7-methyl-1,1-dioxo-2,3,4,5-tetrahydropyrrolo[3,4-f]thiazepine-6-carboxamide]	11 nM	277.1 °C	> 25 µM	–
C[C@H](O)[C@H]1C=Cc2c(cn(C)c2C(=O)Nc2ccc(F)c(C(F)F)c2)S(=O)(=O)N1 [Compound 96, (3R)—N-[3-(difluoromethyl)-4-fluoro-phenyl]-3-[(1S)-1-hydroxyethyl]-7-methyl-1,1-dioxo-2,3-dihydropyrrolo[3,4-f]thiazepine-6-carboxamide]	5 nM	182.3 °C	> 25 µM	–
Cn1cc2c(c1C(=O)Nc1ccc(F)c(F)c1)OCC(C)(Cc1ccncc1)NS2(=O)=O (stereo not drawn) [Compound 191, N-(3,4-difluorophenyl)-3,7-dimethyl-1,1-dioxo-3-(4-pyridylmethyl)-2,4-dihydropyrrolo[3,4-b][1,4,5]oxathiazepine-6-carboxamide]	10 nM	276 °C	> 25 µM	–
Cn1cc2c(c1C(=O)Nc1ccc(F)c(F)c1)OCC(C)(c1ncco1)NS2(=O)=O (single isomer, unassigned) [Compound 160a, N-(3,4-difluorophenyl)-3,7-dimethyl-3-oxazol-2-yl-1,1-dioxo-2,4-dihydropyrrolo[3,4-b][1,4,5]oxathiazepine-6-carboxamide]	–	239.5 °C	> 25 µM	77 nM
C[C@H](O)[C@H]1CCc2c(cn(C)c2C(=O)Nc2ccc(F)c(Cl)c2)S(=O)(=O)N1 [Compound 193, (3R)—N-(3-chloro-4-fluoro-phenyl)-3-[(1S)-1-hydroxyethyl]-7-methyl-1,1-dioxo-2,3,4,5-tetrahydropyrrolo[3,4-f]thiazepine-6-carboxamide]	6 nM	290.8 °C	> 25 µM	–
Cn1cc2c(c1C(=O)Nc1ccc(F)c(F)c1)OCC(C)(c1cnccn1)NS2(=O)=O (single isomer, unassigned) [Compound 145a, N-(3,4-difluorophenyl)-3,7-dimethyl-1,1-dioxo-3-pyrazin-2-yl-2,4-dihydropyrrolo[3,4-b][1,4,5]oxathiazepine-6-carboxamide]	–	199.4 °C	> 25 µM	14 nM
C[C@H](O)[C@H]1C=Cc2c(cn(C)c2C(=O)Nc2ccc(F)c(Cl)c2)S(=O)(=O)N1 [Compound 194, (3R)—N-(3-chloro-4-fluoro-phenyl)-3-[(1S)-1-hydroxyethyl]-7-methyl-1,1-dioxo-2,3-dihydropyrrolo[3,4-f]thiazepine-6-carboxamide]	6 nM	211.3 °C	> 25 µM	–
Cn1cc2c(c1C(=O)Nc1ccc(F)c(F)c1)OC[C@@](C)(c1ccccn1)NS2(=O)=O [Compound 126, (3R)—N-(3,4-difluorophenyl)-3,7-dimethyl-1,1-dioxo-3-(2-pyridyl)-2,4-dihydropyrrolo[3,4-b][1,4,5]oxathiazepine-6-carboxamide]	62 nM	270.5 °C	> 25 µM	–
Cn1cc2c(c1C(=O)Nc1ccc(F)c(F)c1)OCC(C)(c1ncccn1)NS2(=O)=O (single isomer, unassigned) [Compound 153a, N-(3,4-difluorophenyl)-3,7-dimethyl-1,1-dioxo-3-pyrimidin-2-yl-2,4-dihydropyrrolo[3,4-b][1,4,5]oxathiazepine-6-carboxamide]	–	228.3 °C	> 25 µM	> 125 nM
Cn1ccnc1CC1(C)COc2c(cn(C)c2C(=O)Nc2ccc(F)c(F)c2)S(=O)(=O)N1 (stereo not drawn) [Compound 173, N-(3,4-difluorophenyl)-3,7-dimethyl-3-[(1-methylimidazol-2-yl)methyl]-1,1-dioxo-2,4-dihydropyrrolo[3,4-b][1,4,5]oxathiazepine-6-carboxamide]	17 nM	297.1 °C	> 25 µM	–
